Literature values in patent publication CN110812364A, “半乳寡糖及其衍生物在作为SGLTs抑制剂中的应用” (Ocean University of China, priority 2019, dated 2020).

Biological target: T1, SGLT2 (Homo sapiens, UniProt P31639)
T1 sequence (P31639 1-672): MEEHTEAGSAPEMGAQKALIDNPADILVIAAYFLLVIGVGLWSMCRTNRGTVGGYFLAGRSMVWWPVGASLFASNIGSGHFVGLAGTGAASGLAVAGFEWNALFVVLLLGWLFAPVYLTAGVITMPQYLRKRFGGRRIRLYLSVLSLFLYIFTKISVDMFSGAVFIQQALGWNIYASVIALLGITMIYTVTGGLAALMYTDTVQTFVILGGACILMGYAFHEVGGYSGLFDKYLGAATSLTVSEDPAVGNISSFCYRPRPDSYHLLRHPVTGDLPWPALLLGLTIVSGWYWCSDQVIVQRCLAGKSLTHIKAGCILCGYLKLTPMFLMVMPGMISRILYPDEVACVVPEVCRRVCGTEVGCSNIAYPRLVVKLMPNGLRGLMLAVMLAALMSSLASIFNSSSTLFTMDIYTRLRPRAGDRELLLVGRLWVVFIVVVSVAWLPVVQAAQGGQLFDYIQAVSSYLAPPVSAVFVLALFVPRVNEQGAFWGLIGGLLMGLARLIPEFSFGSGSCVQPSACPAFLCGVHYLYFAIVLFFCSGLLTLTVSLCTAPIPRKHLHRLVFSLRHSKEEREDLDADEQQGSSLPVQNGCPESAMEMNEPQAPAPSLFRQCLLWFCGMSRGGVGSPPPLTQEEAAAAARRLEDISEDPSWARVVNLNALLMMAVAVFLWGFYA
Conditions: dual inhibitor of SGLT1 and SGLT2, background section

selectivity for SGLT1 and SGLT2: 选择性较差
SMILES: O=C(CCc1ccc(O)cc1)c1c(O)cc(O)cc1O[C@@H]1O[C@H](CO)[C@@H](O)[C@H](O)[C@H]1O [根皮苷, 根皮苷(phloridzin)]
